Reference: ChEMBL document CHEMBL5442219

How the values were obtained:
Settings in all cases: Compound concentration 10 µM
[1] = target: T1, Alpha-1A adrenergic receptor (Homo sapiens) (UniProt P35348)
T1 sequence (whole entry): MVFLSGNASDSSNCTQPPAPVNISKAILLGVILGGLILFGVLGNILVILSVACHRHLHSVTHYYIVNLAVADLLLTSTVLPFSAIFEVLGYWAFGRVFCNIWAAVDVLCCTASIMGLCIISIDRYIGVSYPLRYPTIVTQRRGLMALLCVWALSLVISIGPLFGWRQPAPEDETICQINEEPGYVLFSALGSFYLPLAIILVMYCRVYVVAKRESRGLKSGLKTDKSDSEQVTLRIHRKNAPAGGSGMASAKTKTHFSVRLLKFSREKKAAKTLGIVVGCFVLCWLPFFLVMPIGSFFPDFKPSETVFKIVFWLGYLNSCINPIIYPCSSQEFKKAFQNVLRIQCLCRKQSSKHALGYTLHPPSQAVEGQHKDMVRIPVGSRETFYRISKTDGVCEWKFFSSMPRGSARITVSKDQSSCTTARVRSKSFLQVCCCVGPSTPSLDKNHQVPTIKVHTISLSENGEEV
Description: PDSP Primary Binding target: ADRA1A - Compounds are tested at 10 uM concentration, plate are incubated at room temperature in the dark for 90 minutes. Reaction are stopped by vacuum filtration onto 0.3% polyethyleneimine soaked filter mats using Filtermate harvester. Scintilation cocktail is then melted onto microwave-dried filters on a hot plate and the radio activity is counted in Microbia counter.

[2] = target: T2, Alpha-2B adrenergic receptor (Homo sapiens) (UniProt P18089)
T2 sequence (whole entry): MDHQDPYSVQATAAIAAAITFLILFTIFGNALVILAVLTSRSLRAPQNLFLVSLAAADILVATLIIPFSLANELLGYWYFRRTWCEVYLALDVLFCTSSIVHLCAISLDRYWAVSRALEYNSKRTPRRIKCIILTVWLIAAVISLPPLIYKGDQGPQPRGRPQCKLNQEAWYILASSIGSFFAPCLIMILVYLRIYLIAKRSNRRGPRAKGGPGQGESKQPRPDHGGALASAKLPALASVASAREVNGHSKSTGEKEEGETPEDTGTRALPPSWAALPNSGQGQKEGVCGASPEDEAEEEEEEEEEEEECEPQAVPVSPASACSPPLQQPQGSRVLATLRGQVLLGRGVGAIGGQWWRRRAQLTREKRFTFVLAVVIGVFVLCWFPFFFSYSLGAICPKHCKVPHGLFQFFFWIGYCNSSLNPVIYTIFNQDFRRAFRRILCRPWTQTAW
Description: PDSP Primary Binding target: ADRA2B - Compounds are tested at 10 uM concentration, plate are incubated at room temperature in the dark for 90 minutes. Reaction are stopped by vacuum filtration onto 0.3% polyethyleneimine soaked filter mats using Filtermate harvester. Scintilation cocktail is then melted onto microwave-dried filters on a hot plate and the radio activity is counted in Microbia counter.

[3] = target: Beta-1 adrenergic receptor (Homo sapiens) (UniProt P08588)
Description: PDSP Primary Binding target: ADRB1 - Compounds are tested at 10 uM concentration, plate are incubated at room temperature in the dark for 90 minutes. Reaction are stopped by vacuum filtration onto 0.3% polyethyleneimine soaked filter mats using Filtermate harvester. Scintilation cocktail is then melted onto microwave-dried filters on a hot plate and the radio activity is counted in Microbia counter.

[4] = target: Beta-2 adrenergic receptor (Homo sapiens) (UniProt P07550)
Description: PDSP Primary Binding target: ADRB2 - Compounds are tested at 10 uM concentration, plate are incubated at room temperature in the dark for 90 minutes. Reaction are stopped by vacuum filtration onto 0.3% polyethyleneimine soaked filter mats using Filtermate harvester. Scintilation cocktail is then melted onto microwave-dried filters on a hot plate and the radio activity is counted in Microbia counter.

[5] = target: D(1A) dopamine receptor (Homo sapiens) (UniProt P21728)
Description: PDSP Primary Binding target: DRD1 - Compounds are tested at 10 uM concentration, plate are incubated at room temperature in the dark for 90 minutes. Reaction are stopped by vacuum filtration onto 0.3% polyethyleneimine soaked filter mats using Filtermate harvester. Scintilation cocktail is then melted onto microwave-dried filters on a hot plate and the radio activity is counted in Microbia counter.

[6] = target: D(2) dopamine receptor (Homo sapiens) (UniProt P14416)
Description: PDSP Primary Binding target: DRD2 - Compounds are tested at 10 uM concentration, plate are incubated at room temperature in the dark for 90 minutes. Reaction are stopped by vacuum filtration onto 0.3% polyethyleneimine soaked filter mats using Filtermate harvester. Scintilation cocktail is then melted onto microwave-dried filters on a hot plate and the radio activity is counted in Microbia counter.

[7] = target: T3, D(4) dopamine receptor (Homo sapiens) (UniProt P21917)
T3 sequence (whole entry): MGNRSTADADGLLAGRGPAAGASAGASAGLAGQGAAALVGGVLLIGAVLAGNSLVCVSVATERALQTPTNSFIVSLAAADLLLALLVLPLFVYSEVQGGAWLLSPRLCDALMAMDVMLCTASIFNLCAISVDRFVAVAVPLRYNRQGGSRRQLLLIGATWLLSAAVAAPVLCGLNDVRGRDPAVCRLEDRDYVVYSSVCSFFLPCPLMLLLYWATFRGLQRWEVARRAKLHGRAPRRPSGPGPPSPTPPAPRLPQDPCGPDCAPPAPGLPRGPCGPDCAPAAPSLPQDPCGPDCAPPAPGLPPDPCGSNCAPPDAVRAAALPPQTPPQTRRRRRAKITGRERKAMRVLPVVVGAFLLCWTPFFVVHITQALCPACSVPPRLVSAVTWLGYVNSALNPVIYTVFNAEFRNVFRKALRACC
Description: PDSP Primary Binding target: DRD4 - Compounds are tested at 10 uM concentration, plate are incubated at room temperature in the dark for 90 minutes. Reaction are stopped by vacuum filtration onto 0.3% polyethyleneimine soaked filter mats using Filtermate harvester. Scintilation cocktail is then melted onto microwave-dried filters on a hot plate and the radio activity is counted in Microbia counter.

[8] = target: T4, 5-hydroxytryptamine receptor 1A (Homo sapiens) (UniProt P08908)
T4 sequence (whole entry): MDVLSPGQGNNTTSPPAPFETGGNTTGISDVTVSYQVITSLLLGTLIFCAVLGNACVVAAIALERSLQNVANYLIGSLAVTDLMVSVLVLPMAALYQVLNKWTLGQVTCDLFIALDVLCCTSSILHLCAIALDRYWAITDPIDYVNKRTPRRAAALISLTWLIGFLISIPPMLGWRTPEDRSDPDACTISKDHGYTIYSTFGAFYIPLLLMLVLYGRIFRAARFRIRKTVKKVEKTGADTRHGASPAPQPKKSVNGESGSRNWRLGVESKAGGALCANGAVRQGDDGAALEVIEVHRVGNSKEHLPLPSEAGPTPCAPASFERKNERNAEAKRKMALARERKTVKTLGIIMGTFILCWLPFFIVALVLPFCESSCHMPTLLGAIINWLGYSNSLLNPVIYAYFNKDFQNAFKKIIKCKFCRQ
Description: PDSP Primary Binding target: HTR1A - Compounds are tested at 10 uM concentration, plate are incubated at room temperature in the dark for 90 minutes. Reaction are stopped by vacuum filtration onto 0.3% polyethyleneimine soaked filter mats using Filtermate harvester. Scintilation cocktail is then melted onto microwave-dried filters on a hot plate and the radio activity is counted in Microbia counter.

[9] = target: 5-hydroxytryptamine receptor 1B (Homo sapiens) (UniProt P28222)
Description: PDSP Primary Binding target: HTR1B - Compounds are tested at 10 uM concentration, plate are incubated at room temperature in the dark for 90 minutes. Reaction are stopped by vacuum filtration onto 0.3% polyethyleneimine soaked filter mats using Filtermate harvester. Scintilation cocktail is then melted onto microwave-dried filters on a hot plate and the radio activity is counted in Microbia counter.

[10] = target: 5-hydroxytryptamine receptor 1E (Homo sapiens) (UniProt P28566)
Description: PDSP Primary Binding target: HTR1E - Compounds are tested at 10 uM concentration, plate are incubated at room temperature in the dark for 90 minutes. Reaction are stopped by vacuum filtration onto 0.3% polyethyleneimine soaked filter mats using Filtermate harvester. Scintilation cocktail is then melted onto microwave-dried filters on a hot plate and the radio activity is counted in Microbia counter.

[11] = target: 5-hydroxytryptamine receptor 5A (Homo sapiens) (UniProt P47898)
Description: PDSP Primary Binding target: HTR5A - Compounds are tested at 10 uM concentration, plate are incubated at room temperature in the dark for 90 minutes. Reaction are stopped by vacuum filtration onto 0.3% polyethyleneimine soaked filter mats using Filtermate harvester. Scintilation cocktail is then melted onto microwave-dried filters on a hot plate and the radio activity is counted in Microbia counter.

[12] = target: 5-hydroxytryptamine receptor 6 (Homo sapiens) (UniProt P50406)
Description: PDSP Primary Binding target: HTR6 - Compounds are tested at 10 uM concentration, plate are incubated at room temperature in the dark for 90 minutes. Reaction are stopped by vacuum filtration onto 0.3% polyethyleneimine soaked filter mats using Filtermate harvester. Scintilation cocktail is then melted onto microwave-dried filters on a hot plate and the radio activity is counted in Microbia counter.

[13] = target: Sodium-dependent dopamine transporter (Homo sapiens) (UniProt Q01959)
Description: PDSP Primary Binding target: SLC6A3 - Compounds are tested at 10 uM concentration, plate are incubated at room temperature in the dark for 90 minutes. Reaction are stopped by vacuum filtration onto 0.3% polyethyleneimine soaked filter mats using Filtermate harvester. Scintilation cocktail is then melted onto microwave-dried filters on a hot plate and the radio activity is counted in Microbia counter.

[14] = target: Translocator protein (Homo sapiens) (UniProt P30536)
Description: PDSP Primary Binding target: TSPO - Compounds are tested at 10 uM concentration, plate are incubated at room temperature in the dark for 90 minutes. Reaction are stopped by vacuum filtration onto 0.3% polyethyleneimine soaked filter mats using Filtermate harvester. Scintilation cocktail is then melted onto microwave-dried filters on a hot plate and the radio activity is counted in Microbia counter.

[15] = target: Kappa-type opioid receptor (Homo sapiens) (UniProt P41145)
Description: PDSP Primary Binding target: OPRK1 - Compounds are tested at 10 uM concentration, plate are incubated at room temperature in the dark for 90 minutes. Reaction are stopped by vacuum filtration onto 0.3% polyethyleneimine soaked filter mats using Filtermate harvester. Scintilation cocktail is then melted onto microwave-dried filters on a hot plate and the radio activity is counted in Microbia counter.

[16] = target: T5, Muscarinic acetylcholine receptor M4 (Homo sapiens) (UniProt P08173)
T5 sequence (whole entry): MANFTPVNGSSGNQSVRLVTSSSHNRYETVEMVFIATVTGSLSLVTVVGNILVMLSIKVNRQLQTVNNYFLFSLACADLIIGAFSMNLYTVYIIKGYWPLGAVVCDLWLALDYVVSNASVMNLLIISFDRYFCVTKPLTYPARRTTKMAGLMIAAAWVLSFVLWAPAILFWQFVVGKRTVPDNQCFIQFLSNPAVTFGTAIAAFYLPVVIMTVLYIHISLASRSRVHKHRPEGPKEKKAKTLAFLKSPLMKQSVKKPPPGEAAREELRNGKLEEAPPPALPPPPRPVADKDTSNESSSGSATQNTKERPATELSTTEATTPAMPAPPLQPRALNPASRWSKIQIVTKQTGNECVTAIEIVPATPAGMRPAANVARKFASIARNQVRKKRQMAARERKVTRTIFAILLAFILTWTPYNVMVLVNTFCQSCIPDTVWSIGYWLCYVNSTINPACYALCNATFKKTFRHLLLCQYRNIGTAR
Description: PDSP Primary Binding target: CHRM4 - Compounds are tested at 10 uM concentration, plate are incubated at room temperature in the dark for 90 minutes. Reaction are stopped by vacuum filtration onto 0.3% polyethyleneimine soaked filter mats using Filtermate harvester. Scintilation cocktail is then melted onto microwave-dried filters on a hot plate and the radio activity is counted in Microbia counter.

D(2) dopamine receptor (Homo sapiens), sequence (P14416 whole entry): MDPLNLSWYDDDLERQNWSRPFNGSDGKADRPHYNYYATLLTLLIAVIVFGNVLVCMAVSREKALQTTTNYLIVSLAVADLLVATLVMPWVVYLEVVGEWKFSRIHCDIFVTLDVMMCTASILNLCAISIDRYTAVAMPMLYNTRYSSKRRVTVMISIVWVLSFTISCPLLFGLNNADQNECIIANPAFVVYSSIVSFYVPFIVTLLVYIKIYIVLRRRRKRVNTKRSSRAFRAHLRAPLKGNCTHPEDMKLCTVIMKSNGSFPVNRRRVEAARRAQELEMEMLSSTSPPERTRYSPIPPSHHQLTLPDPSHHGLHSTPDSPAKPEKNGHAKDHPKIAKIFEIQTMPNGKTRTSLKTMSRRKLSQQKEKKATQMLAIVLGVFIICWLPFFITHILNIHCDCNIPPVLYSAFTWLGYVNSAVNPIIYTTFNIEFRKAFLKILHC
D(1A) dopamine receptor (Homo sapiens), sequence (P21728 whole entry): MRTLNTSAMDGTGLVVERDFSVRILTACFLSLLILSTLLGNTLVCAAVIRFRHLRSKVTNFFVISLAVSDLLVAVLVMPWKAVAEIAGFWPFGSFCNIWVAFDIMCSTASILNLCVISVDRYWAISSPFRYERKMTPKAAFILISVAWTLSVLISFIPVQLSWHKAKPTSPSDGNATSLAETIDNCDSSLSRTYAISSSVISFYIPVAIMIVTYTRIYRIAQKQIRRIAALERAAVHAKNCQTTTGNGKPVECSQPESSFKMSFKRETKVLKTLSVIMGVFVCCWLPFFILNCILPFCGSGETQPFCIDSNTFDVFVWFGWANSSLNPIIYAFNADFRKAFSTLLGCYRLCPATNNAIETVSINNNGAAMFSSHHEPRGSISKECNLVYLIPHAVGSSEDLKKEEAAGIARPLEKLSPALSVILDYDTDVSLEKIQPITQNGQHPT
5-hydroxytryptamine receptor 6 (Homo sapiens), sequence (P50406 whole entry): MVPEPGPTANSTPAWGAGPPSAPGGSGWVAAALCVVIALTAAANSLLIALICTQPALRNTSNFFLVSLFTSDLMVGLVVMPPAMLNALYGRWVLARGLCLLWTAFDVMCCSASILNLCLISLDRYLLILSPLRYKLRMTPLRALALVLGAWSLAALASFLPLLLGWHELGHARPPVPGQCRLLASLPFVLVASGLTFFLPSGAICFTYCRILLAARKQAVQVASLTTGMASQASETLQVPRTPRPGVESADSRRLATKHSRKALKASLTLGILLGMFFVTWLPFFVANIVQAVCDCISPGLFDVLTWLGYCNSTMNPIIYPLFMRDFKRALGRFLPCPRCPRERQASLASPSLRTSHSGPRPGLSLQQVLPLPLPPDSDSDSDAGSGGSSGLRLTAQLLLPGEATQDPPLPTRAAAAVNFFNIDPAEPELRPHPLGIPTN
Beta-1 adrenergic receptor (Homo sapiens), sequence (P08588 whole entry, looked up): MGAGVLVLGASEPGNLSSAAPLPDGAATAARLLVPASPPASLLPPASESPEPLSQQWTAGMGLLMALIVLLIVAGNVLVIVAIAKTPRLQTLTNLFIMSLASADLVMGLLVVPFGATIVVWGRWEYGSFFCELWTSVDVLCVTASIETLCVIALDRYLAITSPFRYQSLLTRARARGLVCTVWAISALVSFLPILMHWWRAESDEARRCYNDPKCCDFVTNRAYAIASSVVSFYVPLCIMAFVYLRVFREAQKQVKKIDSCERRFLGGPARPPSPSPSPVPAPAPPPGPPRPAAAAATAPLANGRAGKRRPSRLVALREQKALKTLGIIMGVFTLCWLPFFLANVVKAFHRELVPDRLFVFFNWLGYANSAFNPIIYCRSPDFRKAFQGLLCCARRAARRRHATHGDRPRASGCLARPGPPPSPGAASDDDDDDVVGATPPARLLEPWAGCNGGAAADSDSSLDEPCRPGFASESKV
Kappa-type opioid receptor (Homo sapiens), sequence (P41145 whole entry): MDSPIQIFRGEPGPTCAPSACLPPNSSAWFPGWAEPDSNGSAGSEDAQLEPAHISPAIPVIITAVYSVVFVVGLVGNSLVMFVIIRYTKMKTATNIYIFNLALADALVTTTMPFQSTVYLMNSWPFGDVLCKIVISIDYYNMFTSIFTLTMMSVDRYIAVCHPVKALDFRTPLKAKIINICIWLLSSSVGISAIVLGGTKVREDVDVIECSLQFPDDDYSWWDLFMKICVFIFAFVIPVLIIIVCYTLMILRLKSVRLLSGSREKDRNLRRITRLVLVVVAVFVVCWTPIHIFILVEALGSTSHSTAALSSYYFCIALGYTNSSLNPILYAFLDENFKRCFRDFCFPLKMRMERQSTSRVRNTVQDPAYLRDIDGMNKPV
Sodium-dependent dopamine transporter (Homo sapiens), sequence (Q01959 whole entry): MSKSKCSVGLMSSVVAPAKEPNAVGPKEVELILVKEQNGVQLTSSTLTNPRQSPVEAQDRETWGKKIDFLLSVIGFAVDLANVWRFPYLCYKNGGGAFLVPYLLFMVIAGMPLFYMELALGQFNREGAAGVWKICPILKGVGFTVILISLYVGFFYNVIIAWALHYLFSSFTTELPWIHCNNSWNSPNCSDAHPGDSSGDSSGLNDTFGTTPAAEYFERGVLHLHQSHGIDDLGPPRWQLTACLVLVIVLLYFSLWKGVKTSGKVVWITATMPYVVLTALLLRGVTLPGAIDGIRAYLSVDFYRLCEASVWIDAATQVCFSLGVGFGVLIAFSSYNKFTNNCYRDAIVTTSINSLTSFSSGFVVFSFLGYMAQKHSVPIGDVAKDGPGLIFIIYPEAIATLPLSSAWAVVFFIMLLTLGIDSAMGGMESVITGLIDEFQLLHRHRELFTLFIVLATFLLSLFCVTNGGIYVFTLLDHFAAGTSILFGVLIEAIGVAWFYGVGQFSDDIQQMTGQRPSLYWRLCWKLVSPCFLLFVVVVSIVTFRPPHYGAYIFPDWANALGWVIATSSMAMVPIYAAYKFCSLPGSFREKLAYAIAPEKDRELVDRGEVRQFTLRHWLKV
5-hydroxytryptamine receptor 1B (Homo sapiens), sequence (P28222 whole entry): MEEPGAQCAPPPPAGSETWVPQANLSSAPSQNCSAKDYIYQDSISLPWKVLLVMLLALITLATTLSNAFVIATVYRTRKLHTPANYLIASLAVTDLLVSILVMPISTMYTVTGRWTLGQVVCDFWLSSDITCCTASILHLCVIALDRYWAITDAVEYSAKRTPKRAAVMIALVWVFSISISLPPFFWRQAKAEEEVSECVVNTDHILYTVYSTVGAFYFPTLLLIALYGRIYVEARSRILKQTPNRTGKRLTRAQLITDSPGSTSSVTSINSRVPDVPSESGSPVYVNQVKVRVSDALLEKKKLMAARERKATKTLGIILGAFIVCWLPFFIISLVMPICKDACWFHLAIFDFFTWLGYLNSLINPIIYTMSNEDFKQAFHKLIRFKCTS
5-hydroxytryptamine receptor 5A (Homo sapiens), sequence (P47898 whole entry): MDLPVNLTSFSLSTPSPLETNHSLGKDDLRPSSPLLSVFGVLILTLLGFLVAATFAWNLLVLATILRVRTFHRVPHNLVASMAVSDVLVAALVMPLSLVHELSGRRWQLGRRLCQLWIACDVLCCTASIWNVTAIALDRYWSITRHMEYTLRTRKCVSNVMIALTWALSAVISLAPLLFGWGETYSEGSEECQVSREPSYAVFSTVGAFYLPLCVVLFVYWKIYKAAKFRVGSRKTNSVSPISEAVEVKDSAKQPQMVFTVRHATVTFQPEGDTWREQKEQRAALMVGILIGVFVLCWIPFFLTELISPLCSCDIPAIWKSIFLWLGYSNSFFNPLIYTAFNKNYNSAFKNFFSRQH
5-hydroxytryptamine receptor 1E (Homo sapiens), sequence (P28566 whole entry): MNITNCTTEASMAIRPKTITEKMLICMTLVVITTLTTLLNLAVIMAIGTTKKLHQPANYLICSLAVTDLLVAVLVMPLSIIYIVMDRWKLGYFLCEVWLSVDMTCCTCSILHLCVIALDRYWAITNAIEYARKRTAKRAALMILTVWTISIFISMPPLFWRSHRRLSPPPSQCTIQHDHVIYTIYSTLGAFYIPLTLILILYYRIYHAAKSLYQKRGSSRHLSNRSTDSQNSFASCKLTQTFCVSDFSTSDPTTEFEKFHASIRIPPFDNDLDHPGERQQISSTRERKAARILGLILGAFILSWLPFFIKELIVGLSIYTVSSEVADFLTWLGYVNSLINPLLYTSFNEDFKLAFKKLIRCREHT
Translocator protein (Homo sapiens), sequence (P30536 whole entry): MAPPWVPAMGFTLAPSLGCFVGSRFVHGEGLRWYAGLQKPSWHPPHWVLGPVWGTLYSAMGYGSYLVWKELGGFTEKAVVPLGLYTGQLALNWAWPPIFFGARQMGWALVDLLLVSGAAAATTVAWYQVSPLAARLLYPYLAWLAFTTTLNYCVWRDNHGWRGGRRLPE
Beta-2 adrenergic receptor (Homo sapiens), sequence (P07550 whole entry, looked up): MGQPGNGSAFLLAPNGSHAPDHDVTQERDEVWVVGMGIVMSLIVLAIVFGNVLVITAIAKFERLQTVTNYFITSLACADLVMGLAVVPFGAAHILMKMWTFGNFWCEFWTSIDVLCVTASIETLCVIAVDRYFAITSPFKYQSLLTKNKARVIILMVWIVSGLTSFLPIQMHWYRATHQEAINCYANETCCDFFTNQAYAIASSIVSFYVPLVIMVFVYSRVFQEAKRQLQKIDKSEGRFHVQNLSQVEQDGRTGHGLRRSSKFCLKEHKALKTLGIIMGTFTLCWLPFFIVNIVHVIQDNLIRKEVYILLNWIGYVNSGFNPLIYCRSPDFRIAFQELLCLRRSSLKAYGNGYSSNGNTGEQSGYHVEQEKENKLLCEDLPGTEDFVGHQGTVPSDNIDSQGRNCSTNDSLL

COc1cccc([C@H](O)C2CCN(CCc3ccc(F)cc3)CC2)c1OC
inhibition [1]: 31.6%
inhibition [2]: 71.7%
inhibition [3]: 32.2%
inhibition [4]: 5.48%
inhibition [5]: 63.9%
inhibition [6]: 4.57%
inhibition [7]: 43.9%
inhibition [8]: 3.32%
inhibition [9]: 27.7%
inhibition [10]: -0.41%
inhibition [11]: 16.8%
inhibition [12]: 5.14%
inhibition [13]: 15.6%
inhibition [14]: -6.18%

C/C(=N\NC(=O)[C@@H]1C(=O)NC[C@H]1c1ccccc1)c1cccc(Br)c1
inhibition [1]: 4.55%
inhibition [2]: -7.62%
inhibition [3]: -3.09%
inhibition [4]: -2.57%
inhibition [5]: -9.99%
inhibition [6]: 7.24%
inhibition [7]: 2.24%
inhibition [8]: 26.4%
inhibition [9]: 3.07%
inhibition [11]: 18.8%
inhibition [12]: 7.94%
inhibition [15]: 19.1%
inhibition [14]: 46.9%

CCN(CC)CCCCC1CCN(CC(=O)N2c3ccccc3C(=O)Nc3cccnc32)CC1
inhibition [1]: -8.07%
inhibition [2]: -3.71%
inhibition [3]: 4.03%
inhibition [4]: 5.55%
inhibition [16]: 95.5%
inhibition [5]: 102%
inhibition [6]: 2.83%
inhibition [7]: -8.29%
inhibition [8]: 0.4%
inhibition [9]: 14.9%
inhibition [12]: -7.42%
inhibition [13]: 28.1%
inhibition [14]: -2.79%

S=C(NCCCc1c[nH]cn1)NCCCN(Cc1ccc(Cl)c(Cl)c1)c1ccc(Br)cn1
inhibition [1]: 84.5%
inhibition [2]: 94.8%
inhibition [3]: 49.2%
inhibition [4]: 40%
inhibition [5]: 61.5%
inhibition [6]: 17.1%
inhibition [7]: 40.9%
inhibition [8]: 43.2%
inhibition [9]: 93.3%
inhibition [10]: 7.46%
inhibition [11]: 96.7%
inhibition [12]: 74%
inhibition [15]: 64.9%
inhibition [13]: 94.8%
inhibition [14]: 30.9%

Nc1nc(NCCc2ccc(O)cc2)nc2nc(-c3ccco3)nn12
inhibition [1]: -6.79%
inhibition [2]: -1.01%
inhibition [3]: 22.3%
inhibition [4]: -3.4%
inhibition [5]: -2.49%
inhibition [6]: 40%
inhibition [7]: 4.31%
inhibition [8]: -6.94%
inhibition [9]: 27%
inhibition [15]: -5.28%
inhibition [13]: 23.6%
inhibition [14]: 22.4%

Cc1csc2c(N[C@@H](C)CN3CCN(S(=O)(=O)c4ccc(Cl)c(Cl)c4)CC3)ncnc12
inhibition [1]: -5.96%
inhibition [2]: -6.72%
inhibition [3]: 26.2%
inhibition [4]: 1.66%
inhibition [5]: -2.84%
inhibition [6]: 32.8%
inhibition [7]: 19.2%
inhibition [8]: 17%
inhibition [9]: -1.11%
inhibition [10]: -3.07%
inhibition [12]: 12.8%
inhibition [15]: 85.4%
inhibition [14]: 73.6%

COc1ccc(/C=C/CCCCOc2ccc(C(=O)c3cccc(C(=O)O)c3)cc2CCC(=O)O)cc1
inhibition [1]: 11.7%
inhibition [2]: 29.1%
inhibition [3]: 49.6%
inhibition [5]: -0.17%
inhibition [6]: 28.2%
inhibition [8]: 30.3%
inhibition [9]: 29.9%
inhibition [10]: 8.42%
inhibition [11]: -8.69%
inhibition [12]: 29.1%
inhibition [15]: 10.7%
inhibition [13]: 23.6%
inhibition [14]: 35.5%

CCCCCNC(=O)NS(=O)(=O)c1cc([N+](=O)[O-])ccc1NC1CCCCC1
inhibition [1]: -4%
inhibition [2]: -2.94%
inhibition [3]: 18.5%
inhibition [4]: -4.07%
inhibition [16]: 4.78%
inhibition [5]: -2.52%
inhibition [6]: 7.7%
inhibition [8]: 1.18%
inhibition [9]: 0.02%
inhibition [10]: 16.8%
inhibition [12]: 12.8%
inhibition [15]: 14.7%
inhibition [13]: 26.3%
inhibition [14]: 34.5%

C[C@@H](NCCc1ccc(O)cc1)[C@@H](O)c1ccc(O)cc1 (relative stereo)
inhibition [1]: 7.01%
inhibition [2]: 5.66%
inhibition [3]: 13.4%
inhibition [4]: 36.5%
inhibition [16]: 33%
inhibition [5]: -9.44%
inhibition [6]: 23.8%
inhibition [7]: -1.86%
inhibition [8]: -2.23%
inhibition [9]: 2.73%
inhibition [10]: -0.11%
inhibition [15]: 23.2%
inhibition [13]: 39.6%
inhibition [14]: 3.95%

Cc1cccc([C@H](C)c2c[nH]cn2)c1C
inhibition [1]: 63%
inhibition [2]: 97.8%
inhibition [3]: 3.18%
inhibition [4]: 20.7%
inhibition [5]: -3.69%
inhibition [6]: 14.4%
inhibition [7]: 26.9%
inhibition [8]: -0.33%
inhibition [9]: 31.3%
inhibition [10]: -0.76%
inhibition [11]: -0.76%
inhibition [12]: 1.41%
inhibition [13]: 39.2%
inhibition [14]: -0.25%

CCCn1c(=O)c2[nH]c(-c3cnn(Cc4cccc(C(F)(F)F)c4)c3)nc2n(CC)c1=O
inhibition [1]: -4.72%
inhibition [2]: 11%
inhibition [3]: -6.47%
inhibition [4]: -2.75%
inhibition [5]: 5.66%
inhibition [6]: 32.5%
inhibition [7]: 0.57%
inhibition [9]: 13.9%
inhibition [10]: -4%
inhibition [15]: -2.72%
inhibition [13]: 45.8%
inhibition [14]: 14.7%

CCCCN(CC)c1nc(C)nc2c1c(C)cn2-c1c(C)cc(C)cc1C
inhibition [1]: 18.2%
inhibition [2]: 39.7%
inhibition [3]: 37.8%
inhibition [4]: -7.68%
inhibition [5]: 19.2%
inhibition [6]: 4.03%
inhibition [8]: -6.24%
inhibition [9]: -9.74%
inhibition [10]: 18.4%
inhibition [15]: 43.2%
inhibition [13]: 36%
inhibition [14]: 74.3%

CCCCN(CCCC)C(=O)CN1C[C@@H](c2ccc3c(c2)OCO3)[C@H](C(=O)O)[C@H]1c1ccc(OC)cc1
inhibition [1]: 11.4%
inhibition [2]: 2.24%
inhibition [3]: -6.31%
inhibition [16]: 7.9%
inhibition [5]: -3.74%
inhibition [6]: 21.1%
inhibition [7]: 60.5%
inhibition [8]: -4.59%
inhibition [9]: -0.63%
inhibition [10]: -0.09%
inhibition [15]: 27.6%
inhibition [13]: 25.8%
inhibition [14]: 84.7%
